Measured values from patent US20230330093A1, “APPLICATION OF NITROGEN-CONTAINING SATURATED HETEROCYCLIC COMPOUND” (SHANGHAI PHARMACEUTICALS HOLDING CO., LTD., priority 2020, published 2023).
Where “and” joins values, the source holds several entries; their conditions need not be identical. Equal entries are not always repeated. Entries after “also recorded” stand apart in the source; their conditions may differ.

Assays:
Assay type in all cases: in vivo, Macaca mulatta (Rhesus Macaque)
[1] = tested on: rhesus monkeys with spontaneous chronic kidney disease; test: Effect on blood pressure (SBP, DBP, MBP, HR) after anesthesia, 8-week administration; settings: for DBP reduced by on average, compared with the baseline / SBP reduced by on average, compared with the baseline: after W8 administration
From the text: In the trial, animals were brought in three stages.
Route of administration: Oral administration.
After anesthesia, the animal was placed in a supine position. The left upper arm was shaved clean, and a suitable size cuff was tied according to the standard. The blood oxygen probe was clamped on the animal's finger or toe (except for the left hand), and the red light-sensitive surface was on the side of the finger pad. The blood pressure of the animal was continuously measured for 3 times in the automatic mode with an interval of 1 min. If the difference of DBP, SBP and MBP of blood pressure measured more than three times was not significant (the difference between the highest value and the lowest value was less than 15 mmHg), the measurement was completed.
Testing equipment: GE B40i electrophysiological monitor.
See Table 16 for the effects of administration of each administration group on blood pressure. The blood pressure test of primates required anesthesia, so it was necessary to control the variability of heart rate at various time points to make statistics.

[2] = tested on: rhesus monkeys with spontaneous chronic kidney disease; test: Effect on BUN, 8-week administration
Protocol: (§1) In the trial, animals were brought in three stages. […] Glomerular filtration rate […]: creatinine (Cr-P), urea nitrogen (BUN) and cystatin (CysC) were detected, and the eGFR value was obtained by calculation. It was performed once before the administration and once every two weeks after the administration. […] ELISA kit was used for NT-proBNP test. [table]

[3] = tested on: rhesus monkeys with spontaneous chronic kidney disease; test: Effect on NT-proBNP (ELISA), 8-week administration
From the text: In the trial, animals were brought in three stages. […] ELISA kit was used for NT-proBNP test. [table]

[4] = tested on: rhesus monkeys with spontaneous chronic kidney disease; test: Effect on plasma creatinine Cr-P, 8-week administration
Protocol: as §1

[5] = 1 mg/kg qd (n = 5), 4 weeks, mean
[6] = 1 mg/kg qd (n = 5), 8 weeks, mean
[7] = 1 mg/kg qd (n=5), p<0.05 vs placebo
[8] = 2 mg/kg qd (n = 5), 4 weeks, mean
[9] = 2 mg/kg qd (n = 5), 8 weeks, mean
[10] = 2 mg/kg qd (n=5), P<0.01 vs placebo
[11] = 5 mg/kg qd (n = 6), 8 weeks, mean
[12] = 5 mg/kg qd (n=6), p<0.01 vs placebo
[13] = 1 mg/kg (n = 5), Baseline, single animals and Mean ± SD
[14] = 1 mg/kg (n = 5), Baseline, single animals and Mean ± SD, mean

`COC(=O)NCCCn1nc([C@@H](C)N(C(=O)[C@H]2CNCCO2)C2CC2)c2ccc(C)nc21.O=C(O)C[C@H](O)C(=O)O` [malate of compound of Formula I] was tested, and the DBP ([1]; 1 mg/kg qd (n = 5), 4 weeks) was 51 mmHg and 54 mmHg and 65 mmHg, the SBP ([1]; 1 mg/kg qd (n = 5), 4 weeks) was 104 mmHg and 109 mmHg and 124 mmHg and the DBP [1, 5] was 61 ± 12 mmHg. The SBP [1, 5] was 118 ± 17 mmHg, the DBP ([1]; 1 mg/kg qd (n = 5), 8 weeks) was 53 mmHg and 49 mmHg and the SBP ([1]; 1 mg/kg qd (n = 5), 8 weeks) was 94 mmHg and 89 mmHg and 114 mmHg. The DBP [1, 6] was 60 ± 12 mmHg, the SBP [1, 6] was 111 ± 20 mmHg and the DBP ([1]; 1 mg/kg qd (n = 5), Baseline) was 54 mmHg and 56 mmHg and 60 mmHg and 59 mmHg and 70 mmHg. For the same compound, the DBP ([1]; 1 mg/kg qd (n = 5), Baseline, mean) was 60 ± 6 mmHg, the SBP ([1]; 1 mg/kg qd (n = 5), Baseline, single animals and Mean ± SD) was 101 mmHg and 105 mmHg and 125 mmHg and 121 mmHg and 129 mmHg and the SBP ([1]; 1 mg/kg qd (n = 5), Baseline, single animals and Mean ± SD, mean) was 116 ± 13 mmHg. The “DBP reduced by on average, compared with the baseline” value (from here on “DBP reduced by on average”) [1, 7] was 5±4 mmHg, the “SBP reduced by on average, compared with the baseline” value (from here on “SBP reduced by on average”) [1, 7] was 11±4 mmHg and the DBP ([1]; 2 mg/kg qd (n = 5), 4 weeks) was 55 mmHg and 83 mmHg and 66 mmHg. The SBP ([1]; 2 mg/kg qd (n = 5), 4 weeks) was 110 mmHg and 163 mmHg and 138 mmHg, the DBP [1, 8] was 71 ± 11 mmHg and the SBP [1, 8] was 140 ± 20 mmHg. For the same compound, the DBP ([1]; 2 mg/kg qd (n = 5), 8 weeks) was 52 mmHg and 70 mmHg and 62 mmHg and 73 mmHg, the SBP ([1]; 2 mg/kg qd (n = 5), 8 weeks) was 102 mmHg and 160 mmHg and 121 mmHg and 133 mmHg and the DBP [1, 9] was 64 ± 8 mmHg. The SBP [1, 9] was 128 ± 21 mmHg, the DBP ([1]; 2 mg/kg qd (n = 5), Baseline) was 58 mmHg and 56 mmHg and 78 mmHg and 83 mmHg and 74 mmHg and the DBP ([1]; 2 mg/kg qd (n = 5), Baseline, mean) was 70 ± 12 mmHg. For the same compound, the SBP ([1]; 2 mg/kg qd (n = 5), Baseline, single animals and Mean ± SD) was 126 mmHg and 111 mmHg and 184 mmHg and 143 mmHg and 137 mmHg, the SBP ([1]; 2 mg/kg qd (n = 5), Baseline, single animals and Mean ± SD, mean) was 140 ± 27 mmHg and the “DBP reduced by on average” value [1, 10] was 9±8 mmHg. The “SBP reduced by on average” value [1, 10] was 19±9 mmHg, the SBP ([1]; 5 mg/kg qd (n = 6), 4 weeks) was 136 mmHg and 124 mmHg and 159 mmHg and 144 mmHg and 139 mmHg and the SBP ([1]; 5 mg/kg qd (n = 6), 4 weeks, mean) was 138 ± 12 mmHg. For the same compound, the DBP ([1]; 5 mg/kg qd (n = 6), 8 weeks) was 57 mmHg and 97 mmHg and 60 mmHg and 59 mmHg, the SBP ([1]; 5 mg/kg qd (n = 6), 8 weeks) was 114 mmHg and 161 mmHg and 121 mmHg and 128 mmHg and the DBP [1, 11] was 66 ± 15 mmHg. For the same compound, the SBP [1, 11] was 129 ± 16 mmHg, the DBP ([1]; 5 mg/kg qd (n = 6), Baseline) was 63 mmHg and 105 mmHg and 74 mmHg and 97 mmHg and 70 mmHg and 71 mmHg and the DBP ([1]; 5 mg/kg qd (n = 6), Baseline, mean) was 80 ± 17 mmHg. For the same compound, the SBP ([1]; 5 mg/kg qd (n = 6), Baseline, single animals and Mean ± SD) was 132 mmHg and 159 mmHg and 127 mmHg and 180 mmHg and 154 mmHg and 149 mmHg, the SBP ([1]; 5 mg/kg qd (n = 6), Baseline, single animals and Mean ± SD, mean) was 150 ± 19 mmHg and the “DBP reduced by on average” value [1, 12] was 10±7 mmHg. For the same compound, the “SBP reduced by on average” value [1, 12] was 21±8 mmHg, the “activity of lowering blood pressure” value ([1]; 1-5 mg/kg qd for 8 weeks) was “showed the activity of lowering the blood pressure; also recorded: the activity of lowering blood pressure was shown” and the BUN ([2]; 1 mg/kg (n = 5), Baseline2, single animals and Mean ± SD) was 35.1 mg/dL and 32.4 mg/dL and 19.3 mg/dL and 39.8 mg/dL and 40.8 mg/dL. For the same compound, the BUN ([2]; 1 mg/kg (n = 5), Baseline2, single animals and Mean ± SD, mean) was 33.5 ± 8.6 mg/dL, the BUN ([2]; 2 mg/kg (n = 5), 4 weeks) was 42.7 mg/dL and 37.1 mg/dL and 22.9 mg/dL and 41.6 mg/dL and 30.4 mg/dL and the BUN ([2]; 2 mg/kg (n = 5), 4 weeks, mean) was 34.9 ± 8.3 mg/dL. For the same compound, the BUN ([2]; 2 mg/kg (n = 5), Baseline2, single animals and Mean ± SD) was 37.5 mg/dL and 24.2 mg/dL and 18.7 mg/dL and 42.1 mg/dL and 25.4 mg/dL, the BUN ([2]; 2 mg/kg (n = 5), Baseline2, single animals and Mean ± SD, mean) was 29.6 ± 9.8 mg/dL and the BUN ([2]; 5 mg/kg (n = 6), Baseline2, single animals and Mean ± SD) was 18.6 mg/dL and 37.3 mg/dL and 41.3 mg/dL and 77.3 mg/dL and 18.1 mg/dL and 81.2 mg/dL. The BUN ([2]; 5 mg/kg (n = 6), Baseline2, single animals and Mean ± SD, mean) was 45.6 ± 27.7 mg/dL, the NT-proBNP [3, 13] was 88 pg/mL and 299 pg/mL and 127 pg/mL and 203 pg/mL and 44 pg/mL and the NT-proBNP [3, 14] was 152 ± 101 pg/mL. The NT-proBNP ([3]; 2 mg/kg (n = 5), Baseline, single animals and Mean ± SD) was 43 pg/mL and 155 pg/mL and 335 pg/mL and 46 pg/mL and 250 pg/mL, the NT-proBNP ([3]; 2 mg/kg (n = 5), Baseline, single animals and Mean ± SD, mean) was 166 ± 127 pg/mL and the NT-proBNP ([3]; 5 mg/kg (n = 6), 8 weeks) was 261 pg/mL and 146 pg/mL and 250 pg/mL and 197 pg/mL and 180 pg/mL. The NT-proBNP ([3]; 5 mg/kg (n = 6), 8 weeks, mean) was 231 ± 73 pg/mL, the NT-proBNP ([3]; 5 mg/kg (n = 6), Baseline, single animals and Mean ± SD) was 312 pg/mL and 88 pg/mL and 211 pg/mL and 432 pg/mL and 177 pg/mL and 162 pg/mL and the NT-proBNP ([3]; 5 mg/kg (n = 6), Baseline, single animals and Mean ± SD, mean) was 230 ± 123 pg/mL. For the same compound, the Cr-P ([4]; 1 mg/kg (n = 5), 2 weeks) was 1.21 mg/dL and 1.07 mg/dL and 1.12 mg/dL and 1.13 mg/dL and 1.24 mg/dL, the Cr-P ([4]; 1 mg/kg (n = 5), 2 weeks, mean) was 1.15 ± 0.07 mg/dL and the Cr-P ([4]; 1 mg/kg (n = 5), 4 weeks) was 1.11 mg/dL and 1.01 mg/dL and 1.12 mg/dL and 1.06 mg/dL and 1.26 mg/dL. For the same compound, the Cr-P ([4]; 1 mg/kg (n = 5), 4 weeks, mean) was 1.11 ± 0.09 mg/dL, the Cr-P ([4]; 1 mg/kg (n = 5), 6 weeks) was 1.16 mg/dL and 1.07 mg/dL and 1.22 mg/dL and the Cr-P ([4]; 1 mg/kg (n = 5), 6 weeks, mean) was 1.12 ± 0.07 mg/dL. For the same compound, the Cr-P ([4]; 1 mg/kg (n = 5), 8 weeks) was 1.14 mg/dL and 1.01 mg/dL and 1.17 mg/dL and 1.18 mg/dL and 1.22 mg/dL, the Cr-P ([4]; 1 mg/kg (n = 5), 8 weeks, mean) was 1.14 ± 0.08 mg/dL and the Cr-P [4, 13] was 1.25 mg/dL and 1.03 mg/dL and 1.09 mg/dL and 1.05 mg/dL and 1.21 mg/dL. The Cr-P [4, 14] was 1.13 ± 0.10 mg/dL, the Cr-P ([4]; 2 mg/kg (n = 5), 2 weeks) was 1.1 mg/dL and 1.19 mg/dL and 1.52 mg/dL and 1.54 mg/dL and 1.11 mg/dL and the Cr-P ([4]; 2 mg/kg (n = 5), 2 weeks, mean) was 1.29 ± 0.22 mg/dL. For the same compound, the Cr-P ([4]; 2 mg/kg (n = 5), 4 weeks) was 1.15 mg/dL and 1.44 mg/dL and 1.47 mg/dL and 1.26 mg/dL and 1.09 mg/dL.
